Source: publication PMC10733463, “Berberine-microbiota interplay: orchestrating gut health through modulation of the gut microbiota and metabolic transformation into bioactive metabolites” (Frontiers in Pharmacology, 2023)

Experiments:
[1] = UPLC-MS/MS quantification of berberine and metabolites in ileal and caecal content; assay type: in vivo, Ross 308 broiler chickens; conditions: 21 days
Excerpt: (§1) The study was undertaken following the guidelines of the ethics committee of the Faculty of Veterinary Medicine and Bioscience Engineering, Ghent University, in accordance with the EU Directive 2010/63/EU. One-day-old Ross 308 male broilers were obtained from a local hatchery and housed in pens on wood shavings. They were allotted into 4 groups, with three replicate pens per group each housing 8 chickens. The animals were not vaccinated. Water and commercial starter feed (day 1–12, FARM 1 Mash, Country’s Best, Versele Laga, Deinze, Belgium) or grower (day 13–21, FARM 2 mash, Country’s Best, Versele Laga, Deinze, Belgium) were provided ad libitum. The control group received the standard non-supplemented diets, whereas the chickens in other groups were fed the same feed supplemented with 0.1, 0.5 or 1 g berberine/kg feed throughout the whole trial period. At day 21, 4 birds per pen were weighted then euthanized by sodium pentobarbital injection for sampling. Individual jejunal, ileal, caecal and colonic contents were stored at −20°C for microbiota composition analysis (16S rRNA gene sequencing). Additionally, ileal and caecal content samples were collected and stored at −20°C for berberine and berberine-derived metabolite quantification. Duodenal tissue samples were collected and fixed in 4% phosphate buffered formaldehyde for histological analysis. Blood samples were collected in heparin tubes and centrifuged at 524 g for 10 min to recover the plasma fraction, which was further mixed with 17 mg/mL L-ascorbic acid for dihydroberberine stabilization, and stored at −20°C for berberine and berberine-derived metabolite quantification.
(§2) The column temperature was maintained at 25°C. The autosampler temperature was set at 10°C.
250 mg of ileal or caecal content was weighed in a 15 mL polypropylene centrifuge tube and 250 µL of ascorbic acid 170 mg/mL solution was added for stabilization of dihydroberberine, followed by brief vortexing. Subsequently, 25 µL of an internal standard solution containing 250 μg/mL of berberine-d6 and 2.5 μg/mL tetrahydropalmatine were added, followed by brief vortexing. A 2.5 mL volume of extraction solvent was then added, consisting of a 1% (v/v) formic acid solution in methanol. The sample was put on a rotary shaker set at 80 rpm for 20 min, followed by centrifugation (3,720 g, 10 min, 4°C). The supernatant was then diluted, by a factor 5 for measurement of low abundance components, and by a factor 2,000 for measurement of high abundance components. The 1/5 diluted sample extract was prepared directly in an autosampler vial as follows: 200 µL sample extract were mixed with 100 µL ascorbic acid 170 mg/mL solution and 700 µL Milli-Q water. For the 1/2,000 diluted sample extract, an intermediate 1/100 sample dilution was prepared by combining 500 µL sample extract and 49.5 mL of Milli-Q water. 50 μL was then transferred in an autosampler vial followed by the addition of 950 µL of Milli-Q water. For both dilutions, a 5 µL sample aliquot was injected onto the UPLC-MS/MS apparatus. Quantification was based on the ratio of the analyte peak area compared to the peak area of the internal standard tetrahydropalmatine for 1/5 diluted sample extracts, and on the ratio of the analyte peak area compared to the peak area of the internal standard berberine-d6 for 1/2,000 diluted sample extracts.
Calibration standards and quality control samples were prepared as follows: 250 mg of blank ileal or caecal content were supplemented with 250 µL of ascorbic acid 170 mg/mL solution, 25 µL mixed solution of berberine and metabolites (with the exception of dihydroberberine) at different levels, 25 µL of dihydroberberine solution, stabilized with 17 mg/mL ascorbic acid, at different levels and 25 µL of an internal standard solution containing 0.625 μg/mL of berberine-d6 and 2.5 μg/mL tetrahydropalmatine. The calibration curve was in the 62.5–5,000 ng/g range, and included 62.5, 125, 250, 500, 1,000, 2,500, and 5,000 ng/g levels. […]

[2] = tested on: Anaerostipes butyraticus (35–7); conditions: 35-7, chicken, 10 µg/mL, pH 6
Description: (§3) Six strains were tested for their ability to convert berberine into berberine-demethylated metabolites. […] Strains were sub-cultured overnight in M2GSC medium pH 6. The next day, caecal content from a 3-week-old broiler chicken was sampled in anaerobic conditions and 1:1,000 diluted in M2GSC medium pH 6 containing 10 μg/mL berberine. Caecal mixtures were enriched with 1:100 diluted overnight cultures of single bacteria, or with M2GSC (control), and incubated in a 24-well plate, for 48 h. […] Samples were collected and processed as described before. Each bacterial strain was tested in triplicate at 37°C–40°C under anaerobic conditions.
(§4) The UPLC instrument consisted of an Acquity H-Class Quaternary Solvent Manager and an Acquity FTN Sample Manager (Waters, Berchem, Belgium). For chromatographic separation, an Acquity UPLC® HSS T3 column (1.8 µm, 100 mm × 2.1 mm i.d.) was used, protected by a precolumn of the same type (VanGuardTM, 5 mm × 2.1 mm i.d.), both from Waters. […] The column temperature was maintained at 25°C. The autosampler temperature was set at 10°C. The UPLC effluent was sent from 1.2 min to 9.5 min by use of a divert valve to a Xevo TQ-S® triple quadrupole mass spectrometer from Water, equipped with an ESI ion source operating in the positive ionization mode from. The UPLC-MS/MS analysis was run under control of MassLynx software (v4.1), which was used for subsequent data processing as well. For the injection of 1/5 diluted intestinal content samples (see section Preparation of intestinal content samples (ileum and caecum)), the divert valve was used in addition from 7.1 min to 8.4 min to deviate the high amount of berberine and associated IS berberine-d6 eluting in that time window from the UPLC column directly to the waste, rather than to the MS detector to avoid oversaturation of the instrument, influencing subsequent sample extract injections at well. Operating conditions for the ESI source used in the positive ionization mode were optimized by direct infusion of all individual components in combination with the mobile phase at 50% A/50% B delivered at a flow rate of 0.3 mL/min. The following tune parameters were used for detection of all components: capillary voltage, 3 kV, cone voltage, 10 V, source offset, 50 V, source temperature, 150°C, desolvation temperature, 500°C, desolvation gas flow, 800 L/h, cone gas flow, 150 L/h, collision gas flow, 0.2 mL/min, ion energy 1 and 2, 0.5, LM 1 and LM 2 resolution, 3, HM 1 and HM 2 resolution, 15. Components were detected in MS/MS mode using component specific MRM (Multiple Reaction Monitoring) transitions (Supplementary Table S1). Since a commercial standard of thalifendine was not available, MS/MS detection parameters and calibration of berberrubine were used for the detection and quantification of thalifendine, which is a reasonable approach, since both compounds are isomers. No commercial reference standards were available for phase II metabolites, therefore “calculated” MRM transitions were defined as follows: [M + -Gluc] > M+ for glucuronide forms and [M + -SO3] > M+ for sulfate forms, where the loss of glucuronic acid or sulfate corresponded to a mass shift of 176 Da or 80 Da respectively. Phase II metabolites were quantified relatively using the berberine calibration curve ([Wang et al., 2017a]; [Kwon et al., 2020]).

B. coccoides (DSM 935) [3] = conditions: DSM 935, chicken, 10 µg/mL, pH 6
Description: as §3, §4

[4] = tested on: Blautia hansenii (DSM 20583); conditions: DSM 20583, chicken, 10 µg/mL, pH 6
Description: as §3, §4

[5] = tested on: Blautia hydrogenotrophica (DSM 10507); conditions: DSM 10507, chicken, 10 µg/mL, pH 6
Description: as §3, §4

Blautia luti (DSM 14534) = conditions: DSM 14534, chicken, 10 µg/mL, pH 6
Description: as §3, §4

[6] = tested on: Eubacterium limosum (LMG 28910); conditions: LMG 28910, chicken, 10 µg/mL, pH 6
Description: as §3, §4

B. coccoides (DSM 935) [7] = conditions: Blautia coccoides, 10 µg/mL, pH 6
Caco-2 monolayers = tested on: Caco-2 monolayers; set-up: method as in Zhang et al., 2019; conditions: in vitro, among berberine metabolites; ref Zhang et al., 2019; cited from earlier work
[8] = UPLC-MS/MS quantification of berberine and metabolites in plasma; assay type: in vivo, Ross 308 broiler chickens; conditions: chickens fed 0.1, 0.5 or 1 g berberine/kg feed for 21 days; LOQ 0.1 ng/mL
Excerpt: as §1, §2
A 137.5 µL plasma sample containing 17 mg/mL L-ascorbic acid was used for sample extraction. The ascorbic acid solution was added to prevent oxidation of dihydroberberine to berberine during sample storage ([Feng et al., 2015]). The plasma sample was transferred to an OstroTM 96 well-plate (25 mg) (Waters). Subsequently, 50 µL Milli-Q water and 25 µL of an internal standard solution containing 100 ng/mL of both berberine-d6 and tetrahydropalmatine were added. A 640 µL volume of 1% (v/v) formic acid solution in acetonitrile (1/3 ratio) was added, followed by gentle mixing. Vacuum was applied on the Ostro™ plate for 5 min and the eluate was collected in a 2 mL square 96-well collector plate. The sample was transferred in a glass tube and evaporated at 40°C under a gentle stream of nitrogen in a Pierce (Rockford, United States) Reacti-Therm III™ Heating Module and Reacti-Vap™ III Module. The dried sample extract was reconstituted in 500 µL Milli-Q water, followed by injection of a 5 µL sample aliquot onto the UPLC-MS/MS apparatus. Quantification was based on the ratio of the analyte peak area compared to the peak area of the internal standard berberine-d6.
Calibration standards and quality control samples were prepared as follows: 137.5 µL of blank plasma stabilized with 17 mg/mL L-ascorbic acid were supplemented with 25 µL mixed working solutions of berberine and metabolites (except dihydroberberine) at different levels, 25 µL of dihydroberberine working solution, stabilized with 17 mg/mL L-ascorbic acid, at different levels and 25 µL of an internal standard solution containing 100 ng/mL of both berberine-d6 and tetrahydropalmatine. The calibration curve was in the 0.1–100 ng/mL range, including 0.1, 0.5, 1, 2.5, 5, 10, 25, […], 50 and 100 ng/mL levels.
The UPLC-MS/MS analysis method for the quantification of berberine and berberine-derived metabolites both in plasma and ileal/caecal intestinal content was validated to the guidelines of the European Medicines Agency, i.e., of the Committee for Veterinary Medicinal Products (EMEA/CVMP/VICH/463202/2009) and of the Committee for Medicinal Products for Human Use (EMEA/CHMP/EWP/192217/20), and in accordance with the EU Directive 2002/657/EC. […]

[9] = rats, oral administration of berberine; cited from earlier work

Row | Ratio caecum / ileum (concentration) ([1]; 0.1 g berberine/kg feed) | Ratio caecum / ileum (concentration) ([1]; 0.5 g berberine/kg feed) | Ratio caecum / ileum (concentration) ([1]; 1 g berberine/kg feed) | Log2(fold change) of metabolite response at 48 h, culture with bacteria over control (berberine-medium + microbiota) [2] | Log2(fold change) of metabolite response at 48 h, culture with bacteria over control (berberine-medium + microbiota) (B. coccoides (DSM 935) [3]) | Log2(fold change) of metabolite response at 48 h, culture with bacteria over control (berberine-medium + microbiota) [4] | Log2(fold change) of metabolite response at 48 h, culture with bacteria over control (berberine-medium + microbiota) [5] | Log2(fold change) of metabolite response at 48 h, culture with bacteria over control (berberine-medium + microbiota) (Blautia luti (DSM 14534)) | Log2(fold change) of metabolite response at 48 h, culture with bacteria over control (berberine-medium + microbiota) [6] | Log2(fold change) of metabolite response at 48 h, B. coccoides pure culture over berberine-medium (B. coccoides (DSM 935) [7]) | SMILES | Permeability across Caco-2 monolayers (Caco-2 monolayers) | Detection in plasma [8] | Amount quantified in feces [9]
1 | 6.68 | 29.03 | 21.17 | 0.21 | 4.46 | 0.34 | 0.26 | -1.30 | 1.37 | 9.30 | COc1c(O)ccc2cc3[n+](cc12)CCc1cc2c(cc1-3)OCO2 [Thalifendine] | most permeable |  | 
2 |  |  |  |  |  |  |  |  |  |  | COc1cc2c(cc1OS(=O)(=O)[O-])-c1cc3ccc(OC)c(OC)c3c[n+]1CC2 [columbamine-sulfate] |  | not detected | 
3 | 15.66 | 30.48 | 32.10 | 0.15 | 1.07 | -0.02 | -3.33e-003 | 1.34 | 0.21 | 1.71 | COc1ccc2cc3[n+](cc2c1OC)CCc1cc(O)c(O)cc1-3 [Demethyleneberberine] | most permeable |  | 1.49%

Row | SMILES | Ratio caecum / ileum (concentration) ([1]; 0.1 g berberine/kg feed) | Ratio caecum / ileum (concentration) ([1]; 0.5 g berberine/kg feed) | Ratio caecum / ileum (concentration) ([1]; 1 g berberine/kg feed) | Log2(fold change) of metabolite response at 48 h, culture with bacteria over control (berberine-medium + microbiota) [2] | Log2(fold change) of metabolite response at 48 h, culture with bacteria over control (berberine-medium + microbiota) (B. coccoides (DSM 935) [3]) | Log2(fold change) of metabolite response at 48 h, culture with bacteria over control (berberine-medium + microbiota) [4] | Log2(fold change) of metabolite response at 48 h, culture with bacteria over control (berberine-medium + microbiota) [5] | Log2(fold change) of metabolite response at 48 h, culture with bacteria over control (berberine-medium + microbiota) (Blautia luti (DSM 14534)) | Log2(fold change) of metabolite response at 48 h, culture with bacteria over control (berberine-medium + microbiota) [6] | Log2(fold change) of metabolite response at 48 h, B. coccoides pure culture over berberine-medium (B. coccoides (DSM 935) [7]) | Permeability across Caco-2 monolayers (Caco-2 monolayers) | Detection in plasma [8] | Amount quantified in feces [9]
4 | COc1cc2c(cc1O)-c1cc3ccc(OC)c(OC)c3c[n+]1CC2 [Columbamine, columbamine] | 0.27 | 0.32 | 0.44 |  |  |  |  |  |  |  |  | below LOQ | 
